We go through eleven compounds from article PMC7917639, “Nopol-Based Quinoline Derivatives as Antiplasmodial Agents” (Molecules, 2021).

Several values for one entry are separate records, joined by “and”; a condition that tells them apart may be missing. Equal entries are not always repeated. Where two headings read alike, the source gives them in different places.

One series relates to PfK1. The experiment in a line: PfK1 erythrocytic stage growth inhibition, [3H]-hypoxanthine incorporation assay. It counts as cell-based, Plasmodium falciparum. The note with it: for EC50: erythrocytic stages, 48 h + 24 h with 3H-hypoxanthine. How it is done: b. PfNH54 and PfK1: The growth inhibitory activities of the compounds against erythrocytic stages of PfNH54 and PfK1 were determined using the [^3H]-hypoxanthine incorporation assay as previously reported. Parasites in RPMI 1640 medium containing […] (without hypoxanthine) were treated with compounds (50–0.3 µM) in 96 well plates for 48 h at 37 °C in 92% N2, 5% CO2, and 3% O2. ^3H-hypoxanthine (0.5 μCi) was added to each well, incubated for an additional 24 h, harvested onto glass-fiber filters, and washed with distilled water. Radioactivity at each compound concentration was counted using a Betaplate™ liquid scintillation counter (Wallac, Zurich), and the results were recorded as counts per minute (CPM) per well. The CPMs were expressed as a percentage of the CPMs from the untreated controls and used to estimate the EC50 from sigmoidal inhibition curves. Artemisinin and CQ were used as positive controls.

In a further series the test system is PfNF54. As to the kind of experiment: PfNF54 erythrocytic stage growth inhibition, [3H]-hypoxanthine incorporation assay. The note with it: for EC50: erythrocytic stages, 48 h + 24 h with 3H-hypoxanthine. It counts as cell-based, Plasmodium falciparum. The method, then:
b. PfNH54 and PfK1: The growth inhibitory activities of the compounds against erythrocytic stages of PfNH54 and PfK1 were determined using the [^3H]-hypoxanthine incorporation assay as previously reported. […] The CPMs were expressed as a percentage of the CPMs from the untreated controls and used to estimate the EC50 from sigmoidal inhibition curves. Artemisinin and CQ were used as positive controls.

Series [1] concerns Human hepatocarcinoma cell line (Hep G2). As to the kind of experiment: Cytotoxicity assay (MTT). In kind it is cell-based. Particulars: 72 h. How it is done:
Human hepatocarcinoma cell line (Hep G2, ATCC CRL-11997TM) was used for cytotoxicity studies as previously described. The cells were grown in complete medium (DMEM:F12 containing L-glutamine and sodium bicarbonate, 10% FBS, 1% penicillin/streptomycin, Thermo Fisher Scientific) at 37 °C in 5% CO2 environment. Cells (198 µL, 5 × 10^5/mL) were seeded into 96-well plates and incubated overnight. The cells were treated with the compounds (160–1.25 µM, in triplicates) or DMSO (1%) for 72 h. The cell medium was removed and replaced with DMEM:F12 medium containing MTT (0.5 mg/mL) was added to the cells and incubated for 1.5 h. The MTT-containing medium was gently removed and replaced with DMSO (200 µL/well). The contents of each well were then repeatedly mixed with a multichannel pipette and incubated for 10 min. The plates were read at 570 nm. DMSO-treated (1%) cells were used as negative assay control and SDS (10%) was used as assay positive control. Percent cell viabilities were expressed as a percentage of the mean viability of DMSO-treated (1%) cells.

Series [2] concerns P. falciparum 3D7 (Pf3D7, chloroquine-sensitive strain). As to the kind of experiment: Pf3D7 asexual blood-stage growth inhibition, SYBR Green fluorescence assay. The note with it: for EC50: read-out: Pf3D7 EC50; for Pf3D7 selectivity index (SI, CC50/EC50): Hep G2 CC50 / Pf3D7 EC50. In kind it is cell-based, Plasmodium falciparum. The method, then:
a. Pf3D7: 100 μL of complete media (Sigma-Aldrich’s RPMI 1640, 25 mM HEPES, 10 μg/mL gentamicin, 0.5 mM hypoxanthine supplemented with NaHCO3 and 0.5% Albumax II, 37 °C) containing compounds (50–0.3 µM) or 100 µM chloroquine were added to 96 well plates in triplicates. This was followed by the addition of 100 µL erythrocytic asexual culture of Pf3D7 (10% hematocrit and 0.25% ring stage parasitemia), maintained at atmospheric conditions of 1% oxygen, 5% carbon dioxide, and 94% nitrogen, and allowed to grow for 96 h at 37 °C. The cultures were then frozen at −80 °C overnight and thawed at 37 °C for 4 h. Aliquots (100 µL) from each well were transferred to black 96-well plates, 100 μL of 2× SYBR Green (Molecular Probes) in lysis buffer (20 mM Tris at pH 7.5, 5 mM EDTA, 0.008% saponin, 0.08% Triton X-100) was added to each well and mixed thoroughly with a pipette. The plates were incubated in the dark at room temperature for 1 h and read at λex 485 nm and λem 530 nm. Infected and untreated red blood cells (iRBC) cultures served as negative control. Percent inhibitory activities were calculated using (=100 − 100*((Sample − 100 µM CQ)/(iRBC − 100 µM CQ)) and used to plot sigmoidal inhibition curves to obtain the EC50 values.

The mark [3] stands for this setting: erythrocytic asexual culture, 96 h, SYBR Green.

In general, EC50 refers to the concentration needed to bring the measured effect to its halfway point. For orientation: CC50 means the concentration at which the toxic effect on the cells reaches its halfway point. A lower CC50 goes with greater toxicity to the cells. Regarding `CC1(C)[C@@H]2CC=C(CC(=O)Oc3ccnc4ccccc34)[C@H]1C2` [Compound 7, quinolin-4-yl-2-((1S,5R)-6,6-dimethylbicyclo[3.1.1]hept-2-en-2-yl) Acetate], the figures for the EC50 (in the series on PfK1; in the series on PfNF54; in series [2] (setting [3])) were over 28 µM, over 50 µM and over 50 µM, respectively. This compound gave a CC50 in series [1] of over 160 µM.

As to `CC1(C)[C@@H]2CC=C(CC(=O)Nc3ccnc4cc(Cl)ccc34)[C@H]1C2` [Compound 6, N-(7-chloroquinolin-4-yl)-2-((1S,5R)-6,6-dimethylbicyclo[3.1.1]hept-2-en-2-yl) Acetamide], the “PfK1 selectivity index (SI, CC50/EC50)” value with PfK1 (Hep G2 CC50 / PfK1 EC50) stood at 1.8. Moreover, the values for the EC50 (with PfK1; in the series with PfNF54; in series [2] (setting [3])) were 7.84 ± 0.57 µM, 21.4 ± 1.7 µM and 17.1 ± 1.8 µM, respectively. The “Antiplasmodial activity against K1 strain (in words)” value in the series on PfK1 (multidrug-resistant strain) is “weakly active”. Also, the “Antiplasmodial activity against NF54 strain (in words)” value in the series on PfNF54 is “weakly active”. The “PfNF54 selectivity index (SI, CC50/EC50)” value in the series with PfNF54 (Hep G2 CC50 / PfNF54 EC50) stood at 0.7. The midpoint of cytotoxicity in series [1], the CC50, lay at 14.3 ± 1.2 µM. Further, in series [2], the “Pf3D7 selectivity index (SI, CC50/EC50)” value is recorded as 0.8.

`COc1ccc(NC(=O)CC2=CCC3CC2C3(C)C)c2ncccc12` (single isomer, unassigned) [Compound 1] yielded a 50% cytotoxic concentration (CC50) in series [1] of 70.8 ± 1.26 µM. Besides, the “Pf3D7 selectivity index (SI, CC50/EC50)” value in series [2] is recorded as 13.4. Further, in series [2] (setting [3]), the EC50 was 5.25 ± 0.7 µM.

`Cc1c(Cl)ccc2c(OC(=O)CC3=CC[C@@H]4C[C@H]3C4(C)C)ccnc12` [Compound 11, 7-chloro-8-methylquinolin-4-yl-2-((1S,5R)-6,6-dimethylbicyclo[3.1.1]hept-2-en-2-yl) Acetate] displayed a CC50 in series [1] of over 160 µM. For the same compound, the “Pf3D7 selectivity index (SI, CC50/EC50)” value in series [2] is over 9.1. Besides, in series [2] (setting [3]), the EC50 stood at 17.6 ± 5.27 µM.

`C[C@@H]1CC[C@H]2[C@@H](C)C(=O)O[C@@H]3O[C@@]4(C)CC[C@@H]1[C@]32OO4` [Artemisinin, reference compound]: the EC50 in the series on PfK1 (Plasmodium falciparum, 72 h) amounted to 0.011 ± 0.005 µM; in the series on PfNF54 (Plasmodium falciparum, 72 h), 0.017 ± 0.005 µM.

With `CCN(CC)CCCC(C)Nc1ccnc2cc(Cl)ccc12` (stereo not shown) [Chloroquine, reference compound], the concentration for a half-maximal effect (EC50) in series [2] (Plasmodium falciparum, 3D7, 96 h) was determined as 0.004 ± 0.001 µM.

For `OC(c1cc(C(F)(F)F)nc2c(C(F)(F)F)cccc12)C1CCCCN1` (stereo not shown) [Mefloquine, reference compound], the EC50 in the series with PfK1 (Plasmodium falciparum, 72 h) came out at 0.117 ± 0.015 µM; with PfNF54 (Plasmodium falciparum, 72 h), 0.003 ± 0.002 µM; in series [2] (Plasmodium falciparum, 3D7, erythrocytic asexual culture, 96 h, SYBR Green), 2.33 ± 2.29 µM.

`CC1(C)[C@@H]2CC=C(CC(=O)Oc3cc(C(F)(F)F)nc4c(C(F)(F)F)cccc34)[C@H]1C2` [Compound 12, 2,8-bis(trifluoromethyl)quinolin-4-yl-2-((1S,5R)-6,6-dimethylbicyclo[3.1.1]hept-2-en-2-yl) Acetate] returned a CC50 in series [1] of 21.8 ± 1.1 µM. The “Pf3D7 selectivity index (SI, CC50/EC50)” value in series [2] was determined as 0.7. The EC50 in series [2] (setting [3]) was 29.6 ± 0.93 µM.

Consider `Cc1cc(OC(=O)CC2=CC[C@@H]3C[C@H]2C3(C)C)c2ccc(Cl)c(C)c2n1` [Compound 9, 7-chloro-2,8-dimethylquinolin-4-yl-2-((1S,5R)-6,6-dimethylbicyclo[3.1.1]hept-2-en-2-yl) Acetate], for which the CC50 in series [1] was over 160 µM. Also, the “Pf3D7 selectivity index (SI, CC50/EC50)” value in series [2] was over 26. Also, the concentration for a half-maximal effect (EC50) in series [2] (setting [3]) is 6.2 µM and 6.15 µM.

Regarding `CC1(C)[C@@H]2CC=C(CC(=O)Oc3cc(C(F)(F)F)nc4ccc(F)cc34)[C@H]1C2` [Compound 10, 6-fluoro-2-(trifluoromethyl)quinolin-4-yl-2-((1S,5R)-6,6-dimethylbicyclo[3.1.1]hept-2-en-2yl) Acetate], in series [1], half-maximal cytotoxicity (CC50) was put at 48.5 ± 1.12 µM. Also, the “Pf3D7 selectivity index (SI, CC50/EC50)” value in series [2] worked out at 2.3. For the same compound, the EC50 in series [2] (setting [3]) worked out at 21.4 ± 5.06 µM.

In series [1], `COc1ccc(NC(=O)CC2=CCC3CC2C3(C)C)c2ncccc12` (single isomer, unassigned) [Compound 2] gave a CC50 of over 160 µM. Also, the “Pf3D7 selectivity index (SI, CC50/EC50)” value in series [2] is over 58.8. Also, in series [2] (setting [3]), the EC50 amounted to 2.72 ± 0.28 µM.
